In US8999987B2, “Dihydropyridophthalazinone inhibitors of poly(ADP-ribose)polymerase (PARP)” (BioMarin Pharmaceutical Inc., priority 2008, dated 2015):

Key:
BRCA2-deficient tumors = settings: cited from earlier work
CAPAN-1 cells = CAPAN-1 cells in DMEM with FCS (20% v/v); cited from earlier work
[1] = test system: BRCA2-deficient cell line V-C8; settings: V-C8 compared with the BRCA2 wild type control; cited from earlier work
PARP-1 = PARP-1 (Homo sapiens, UniProt P09874); settings: PARP-1 inhibitor; cited from earlier work
PARP-1, sequence (P09874 whole entry, species assumed): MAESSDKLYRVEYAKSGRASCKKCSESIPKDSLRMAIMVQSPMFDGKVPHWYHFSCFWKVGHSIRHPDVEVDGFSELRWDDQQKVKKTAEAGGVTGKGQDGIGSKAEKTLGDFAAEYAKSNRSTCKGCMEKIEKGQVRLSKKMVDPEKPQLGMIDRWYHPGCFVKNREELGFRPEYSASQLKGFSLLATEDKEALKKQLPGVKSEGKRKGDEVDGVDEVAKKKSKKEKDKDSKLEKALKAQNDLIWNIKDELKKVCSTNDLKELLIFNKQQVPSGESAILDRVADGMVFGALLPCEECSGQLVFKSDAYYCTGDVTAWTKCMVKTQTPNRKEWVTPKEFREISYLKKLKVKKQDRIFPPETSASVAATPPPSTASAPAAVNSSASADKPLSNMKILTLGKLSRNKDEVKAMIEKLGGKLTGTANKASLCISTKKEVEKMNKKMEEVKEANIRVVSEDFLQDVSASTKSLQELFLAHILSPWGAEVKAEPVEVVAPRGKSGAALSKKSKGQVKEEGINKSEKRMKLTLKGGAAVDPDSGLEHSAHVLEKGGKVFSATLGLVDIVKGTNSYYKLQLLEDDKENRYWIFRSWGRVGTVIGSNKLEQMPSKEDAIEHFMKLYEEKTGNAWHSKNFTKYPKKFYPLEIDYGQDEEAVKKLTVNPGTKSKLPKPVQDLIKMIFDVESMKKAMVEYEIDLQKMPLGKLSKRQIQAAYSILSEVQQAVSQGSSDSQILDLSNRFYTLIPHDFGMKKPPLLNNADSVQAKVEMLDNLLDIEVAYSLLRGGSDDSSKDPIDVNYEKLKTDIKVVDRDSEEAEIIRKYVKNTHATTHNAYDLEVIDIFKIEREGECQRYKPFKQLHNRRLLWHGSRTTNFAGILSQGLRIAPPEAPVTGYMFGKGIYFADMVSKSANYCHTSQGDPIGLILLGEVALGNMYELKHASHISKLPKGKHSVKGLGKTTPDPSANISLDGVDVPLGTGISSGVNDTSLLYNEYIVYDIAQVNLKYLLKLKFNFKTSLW

MX-1 xenograft model = assay: Xenograft combination study with Cisplatin; type: in vivo, mice; settings: MX-1 breast xenograft model; comparable doses of cisplatin or PARP inhibitor alone
Procedure: Female athymic nu/nu mice (8-10 weeks old) were used for all in vivo xenograft studies. Mice were quarantined for at least 1 week before experimental manipulation. Exponentially growing cells or in vivo passaged tumor fragments were implanted subcutaneously at the right flank of nude mice. Tumor-bearing mice were randomized according to tumor size into 6-8 mice/group in each study (average tumor size ˜150 mm^3). Mice were observed daily for survival and tumors were measured twice weekly by caliper in two dimensions and converted to tumor mass using the formula for a prolate ellipsoid (V=0.5 a×b^2), where a and b are the long and short diameters of the tumor, respectively, and assuming unit density (1 mm^3=1 mg).
Combination study: PARP inhibitory compounds described herein in vehicle 10% DMAc/6% Solutal/84% PBS, were either administered orally, once daily for 5 days with Temozolomide (17 mg/kg or 34 mg/kg, p.o., qd×5, 30 min after each dose of compounds) in SW620 xenograft model or dosed orally, once daily for 8 days with 6 mg/kg Cisplatin (once by ip on day 3, 30 min after first dose of PARP inhibitors) in MX-1 xenograft model. Mice were observed and individual tumor was measured for 30 more days after the last dosing of PARP inhibitory compounds.

Structure (SMILES): O=C1CCC(=O)N1c1cc(Cc2n[nH]c(=O)c3ccccc23)ccc1F [KU0058684]
- in vivo efficacy, tumor growth (BRCA2-deficient tumors): shown in vivo efficacy in blocking the growth of BRCA2-deficient tumors
- sensitivity in clonogenic survival assay (CAPAN-1 cells): showing sensitivity to PARP inhibition

Structure (SMILES): Cc1nc2c(O)cccc2c(=O)[nH]1 [NU1025]
- sensitivity in clonogenic survival assay [1]: exhibited sensitivity
- Ki (PARP-1): 50 nM

Structure (SMILES): CN(C)Cc1ccc(-c2nc3cccc4c3n2CCNC4=O)cc1 [AG14361]
- sensitivity in clonogenic survival assay [1]: exhibited sensitivity
- Ki (PARP-1): 5 nM

Structure (SMILES): N.N.[Cl][Pt][Cl] [cisplatin]
- tumor inhibition, agent alone (MX-1 xenograft model): only small to modest tumor inhibition
